Reference: patent publication US8518993B2, “Combination of bioavailable methionine with at least one essential oil” (Adisseo Ireland Ltd., priority 2005, dated 2013)

System: ileal flora of meat chicken
Assay: Gas production in vitro by ileal contents of meat chicken (wheat-based diet)
Assay type: cell-based
Source text: The purpose of the following tests is to compare the production of gas by the flora of the ileal contents of meat chicken, in relation to various test parameters. The production of gas is an indirect indicator of the bacterial activity of the ileal flora of the chicken.
50 meat chicken are raised with a wheat-based diet. These chicken are raised with the same nutritional regimen. The chicken are sacrificed on the 35th day, then the contents of their ileum are removed in anaerobic conditions. The contents are placed in bottles which are stored at −18° C.
Based on the experimental design described in Table I below, the volume of gas produced is measured as a function of time.
48 bottles are filled successively with:
the treatment (nothing for the negative control, HMTBA, EO or the test item),
90 ml of buffer solution, containing wheat starch (nutrient medium for the bacteria); the function of this buffer solution is to maintain a constant pH and suppress O2
10 ml of inoculum, comprising a mixture of ¼ of ileal contents and ¾ of sterile physiological solution, which is filtered and homogenized before filling.
The doses tested are calculated to be representative of the concentrations of the products that would be found in the gastrointestinal contents of the animals.
Using the experimental design described in Table I above, curves of the volume of gas produced as a function of time are obtained, and are mostly sigmoidal.
These curves are modelled according to the following model: Y=A/(1+(C/t)^B) where
A, B and C=parameters of the model
Using these equations, we then analyse the modelled final volume Vf (Vf=A), as well as the time for which the rate of production of gas is maximum, called Trm (this time is used as an indirect measure of the latency, which is not accessible with this model). […] If the probability of the treatment effect is significant, i.e. if p<0.05, the means are then compared by the Fisher PLSD test, which makes it possible to establish the differences on the means between the various treatments.
The experimental conditions and parameters of Example 1 are repeated in Example 2, according to Table III below.
The experimental conditions and parameters of example 1 are repeated in Example 3, according to Table V below.
The experimental conditions and parameters of Example 1 are repeated in example 4, according to Table VII below.
For this test, ileal flora derived from 35-day-old chickens fed with a wheat-based diet is used.
In this test, one of the mixtures tested in Example 1 is tested.

[1] = Example 1, wheat-based diet, HMTBA 83 mg, EO 28-50 mg per bottle (Table I), 4 repetitions
[2] = Example 2, HMTBA 83 mg, EO 15 mg (Table III), EO1 red thyme, EO2 tea tree
[3] = Example 3, HMTBA 83 mg, EO 15 mg (Table V), EO1 cinnamon
[4] = Example 4, HMTBA 83 mg, MEO 15 mg (Table VII), MEO 3/4 tea tree and 1/4 cinnamon
[5] = Example 8, HMTBA 113 mg, origanum oil 13 mg (Table XII)

Substance: 2-hydroxy-4-methylthiobutanoic acid [HMTBA]
- Effect on bacterial activity measured by Trm (in words) (Example 1): little if any effect
- Trm: time for which the rate of production of gas is maximum, Mean [1]: 10.8 h
- Vf: final volume of gas produced, Mean [1]: 565 mL
- Trm: time for which the gas production rate is at a maximum, Mean [2]: 20.3 h
- Vf: final volume of gas produced, Mean [2]: 296.2 mL
- Trm: time for which the gas production rate is at a maximum, Mean [3]: 28.1 h
- Vf: final volume of gas produced, Mean [3]: 334.3 mL
- Trm: time for which the gas production rate is at a maximum, Mean [4]: 15.4 h
- Vf: final volume of gas produced, Mean [4]: 421 mL
- Trm difference with the negative control (Example 4, negative control Trm 11.1 h): 4.3 h
- Effect on fermentation / activity of the bacterial flora (in words) (Example 8): no significant effect
- Trm, Means [5]: 16.2 h
- Vf, Means [5]: 353 mL
